Assay results reported in EP0532512B1, “USE OF PLATELET ACTIVATING FACTOR ANTAGONISTS AS ANTI-PRURITIC AGENTS” (ALLERGAN, INC., priority 1990, dated 1991).
Where a SMILES comes first, the peptide text is derived from it.

What was measured:
albino guinea-pig eye = assay: Pruritogenic activity of autocoids: topical drop to the eye (conjunctiva), scratching episodes counted over 15 minutes; assay type: in vivo; settings: for NO OF SCRATCH EPISODES (X̄ ± SEM): 15 minutes, n=12; for pruritogenic activity (in words): summary of Table 1
Text: (§1) A more complete appreciation of the invention may be obtained from the following Examples. As a means of providing an atraumatic experimental model of itching, the conjunctiva was used as a convenient tissue site. Pruritogenic agents may be administered to the conjunctiva without the need to traumatize the tissue by injection or scarification. The itch sensation is elicited peripherically by local, atraumatic application of the pruritogen. Of equal importance is the ability of this model to identify locally acting anti-pruritic agents without concerns regarding local tissue trauma or, in the case of systemically administered agents, sedation.
(§2) The pruritogenic activity of numerous and structurally diverse autocoids was examined as follows. A 20 µl drop of a solution of the particular autocoid under evaluation was topically administered to one albino guinea-pig eye, the contralateral eye received 20 µl of vehicle as a control. For PAF studies, the R=15 version of formula I was used and was taken up in 0.5% ultrapure bovine serum albumin. The guinea pig was then replaced in its cage and the number of scratching episodes was recorded over the 15 subsequent minute period. The retention of the experimental animal in familiar surroundings is an important factor in experimental design. Scratching, which is the typical mammalian behavioral response to the itch sensation, provides an indication of the intensity of the perceived itch sensation and can be quantified by recording the frequency at which itch-scratch episodes occur per unit time: 15 minutes in the case of these examples.

PAF induced pruritus = assay: Attenuation of PAF induced pruritus by 30 minute topical pretreatment (conjunctival itch-scratch model); assay type: in vivo, guinea-pig; settings: for scratch episodes, TREATED GROUP (mean ± SEM): 30 minute topical pretreatment, n=12
Text: as §1, §2
The ability of a 30 minute topical pretreatment with selected PAF antagonists to attenuate PAF induced pruritus is shown in Table 2.

[1] = tested on: experimental allergic itching; assay: Experimental allergic itching: conjunctival antigen (chicken ovalbumin) challenge in presensitized animals after pretreatment; assay type: in vivo; settings: n=8-10
Text: as §1
In addition to pharmacological studies on pruritogenic autocoids, the conjunctiva may be used as a convenient site for modelling diseases where itching is a major symptom. In animals presensitized to a particular antigen, subsequent topical challenge with that antigen results in conjunctival itching. This may be regarded as an experimental model of itching which has general relevance to clinically encountered pruritus. In the studies described herein, chicken ovalbumin was used as an antigenic substance and the ability of PAF antagonist pretreatment to block the itching response was examined (Table 3).

[2] = dose 10 μg, 20 µl drop topically to one eye
[3] = dose 100 μg, 20 µl drop topically to one eye

With `CCCCCC(O)/C=C/C=C\C/C=C\C/C=C\CCCC(=O)O` (stereo not shown) [15-Hydroxytetraemoic Acid] the “NO OF SCRATCH EPISODES (X̄ ± SEM)” value (albino guinea-pig eye; [2]) was 0.08 ± 0.08.

With `CCCCCCCCCCCCCCCCOCC(COP(=O)([O-])OCC[N+](C)(C)C)OC(C)=O` (stereo not shown) [PAF, 1-O-alkyl-2-acetyl-sn-glycero-3-phosphocholine] the “pruritogenic activity (in words)” value (albino guinea-pig eye) was “most potent pruritogenic agent”.

`CCCCCCCCCCCCCCCCCCNC(=O)OCC(COC(=O)N(Cc1cccc[n+]1CC)C(C)=O)OC` (stereo not shown) [Compound of formula (II)] was tested, and the “scratch episodes, TREATED GROUP (mean ± SEM)” value (PAF induced pruritus; 10 mg/ml, vs 1 µg PAF) was 2.67 ± 0.68, the “scratch episodes, TREATED GROUP (mean ± SEM)” value (PAF induced pruritus; 10 mg/ml, vs 10 µg PAF) was 6.50 ± 1.09 and the “scratch episodes, TREATED GROUP” value ([1]; 1 mg/ml pretreatment vs 100 µG antigen) was 7.62 ± 0.96.

In the case of `CCCCC[C@H](O)/C=C/[C@@H]1[C@@H](C/C=C\CCCC(=O)O)[C@@H](O)C[C@H]1O` [PROSTAGLANDIN F2α], the “NO OF SCRATCH EPISODES (X̄ ± SEM)” value (albino guinea-pig eye; [3]) is reported as 1.75 ± 0.37.

`CCCCCCCCCCCCCCCCOC[C@@H](O)COP(=O)([O-])OCC[N+](C)(C)C` [LYSO-PAF] was tested, and the “NO OF SCRATCH EPISODES (X̄ ± SEM)” value (albino guinea-pig eye; dose 1 μg, 20 µl drop topically to one eye) was 0.92 ± 0.26, the “NO OF SCRATCH EPISODES (X̄ ± SEM)” value (albino guinea-pig eye; [2]) was 2.67 ± 0.73 and the “NO OF SCRATCH EPISODES (X̄ ± SEM)” value (albino guinea-pig eye; [3]) was 13.0 ± 1.58. The “pruritogenic activity (in words)” value (albino guinea-pig eye) was “relatively weak activity”.

With `CC(=O)O` [10mM ACETIC ACID, ACETIC ACID] the “NO OF SCRATCH EPISODES (X̄ ± SEM)” value (albino guinea-pig eye; pain producing stimulus solution, no dose printed (--)) was 0.42 ± 0.19 and the “pruritogenic activity (in words)” value (albino guinea-pig eye) was “virtual absence of an itch-scratch response”.

For `CC1C(=O)OC2C(O)C34C5CC(C(C)(C)C)C36C(OC(=O)C6O)OC4(C(=O)O5)C12O` (stereo not shown) [Compound of formula (III), Ginkgolide B], the “scratch episodes, TREATED GROUP (mean ± SEM)” value (PAF induced pruritus; 10 mg/ml, vs 10 µg PAF) was 8.42 ± 1.37 and the “scratch episodes, TREATED GROUP” value ([1]; 10 mg/ml pretreatment vs 100 µG antigen) was 6.87 ± 1.61.

With `CCCCC/C=C\CC(O)/C=C/C=C\C/C=C\CCCC(=O)O` (stereo not shown) [12-Hydroxytetraemoic Acid] the “NO OF SCRATCH EPISODES (X̄ ± SEM)” value (albino guinea-pig eye; [2]) was 0.08 ± 0.08.

With `CCCCC/C=C\C\C=C/C=C/C=C/[C@@H](SC[C@H](NC(=O)CC[C@H](N)C(=O)O)C(=O)NCC(=O)O)[C@@H](O)CCCC(=O)O` [LEUKOTRIENE C4] the “NO OF SCRATCH EPISODES (X̄ ± SEM)” value (albino guinea-pig eye; [2]) was 0.58 ± 0.36.

In the case of “Bradykinin (RPPGFSPFR; Bradykinin; UniProt P01042 381-389, looked up)”, the “NO OF SCRATCH EPISODES (X̄ ± SEM)” value (albino guinea-pig eye; [2]) is reported as 0.50 ± 0.23 and the “NO OF SCRATCH EPISODES (X̄ ± SEM)” value (albino guinea-pig eye; [3]) is reported as 4.00 ± 0.90.

With `Cc1nnc2n1-c1sc(CCC(=O)N3CCOCC3)cc1C(c1ccccc1Cl)=NC2` [Compound of formula (IV)] the “scratch episodes, TREATED GROUP (mean ± SEM)” value (PAF induced pruritus; 5 mg/ml, vs 1 µg PAF) was 0.33 ± 0.19, the “scratch episodes, TREATED GROUP (mean ± SEM)” value (PAF induced pruritus; 5 mg/ml, vs 10 µg PAF) was 5.25 ± 0.98 and the “scratch episodes, TREATED GROUP” value ([1]; 10 mg/ml pretreatment vs 10 µG antigen) was 5.00 ± 1.10.

With `CC(C)[C@H](N)C(=O)NCC(=O)N[C@@H](CC(=O)O)C(=O)N[C@@H](CCC(=O)O)C(=O)O` [L-valylglycyl-L-aspartyl-L-glutamic acid] (H-VGDE-OH) the “NO OF SCRATCH EPISODES (X̄ ± SEM)” value (albino guinea-pig eye; [3]) was 0.92 ± 0.26.

With `CCCCC/C=C\C[C@@H](O)/C=C/C=C/C=C\[C@@H](O)CCCC(=O)O` [LEUKOTRIENE B4] the “NO OF SCRATCH EPISODES (X̄ ± SEM)” value (albino guinea-pig eye; [2]) was 0.42 ± 0.23.

With `C[C@H](N)C(=O)NCC(=O)N[C@@H](CO)C(=O)N[C@@H](CCC(=O)O)C(=O)O` [L-alanylglycyl-L-seryl-L-glutamic acid] (H-AGSE-OH) the “NO OF SCRATCH EPISODES (X̄ ± SEM)” value (albino guinea-pig eye; dose 1000 μg, 20 µl drop topically to one eye) was 1.42 ± 0.47.

In the case of `COc1ccc(CN(CCN(C)C)c2ccccn2)cc1` [Pyrilamine], the “scratch episodes, TREATED GROUP (mean ± SEM)” value (PAF induced pruritus; 0.1 mg/ml, vs 1 µg PAF) is reported as 4.17 ± 0.91, the “scratch episodes, TREATED GROUP (mean ± SEM)” value (PAF induced pruritus; 0.1 mg/ml, vs 10 µg PAF) is reported as 14.25 ± 1.75 and the “block of PAF induced pruritus (in words)” value (PAF induced pruritus; summary of Table 2) is reported as “not”.

For `CCCCC/C=C\C/C=C\C/C=C\C=C\C(O)CCCC(=O)O` (stereo not shown) [5-Hydroxytetraemoic Acid], the “NO OF SCRATCH EPISODES (X̄ ± SEM)” value (albino guinea-pig eye; [2]) was 0.33 ± 0.22.
